Literature values as cited in patent US20080214562A1, “Chemical Compounds” (priority 2005, published 2008).

System: T-tropic HIV
Conditions: patients that are dual tropic or where only the T-tropic form of the virus is present

Compound: c1cc(CN2CCCNCCNCCCNCC2)ccc1CN1CCCNCCNCCCNCC1 [AMD-3100]
- T-tropic HIV viral load: significantly reduce
